Results published in publication PMC6891666, “Identifying Phlorofucofuroeckol-A as a Dual Inhibitor of Amyloid-β25-35 Self-Aggregation and Insulin Glycation: Elucidation of the Molecular Mechanism of Action” (Marine Drugs, 2019).
Where two headings read alike, the source gives them in different places.

What was measured:
bovine insulin [1] = molecular target: T1, bovine insulin (Bos taurus, UniProt P01317); test: D-glucose-induced non-enzymatic insulin glycation assay; type: biochemical
T1 construct: Phe1 and Asn3 in chain B and Ser12, Gln15, Glu17, and Asn18 in chain A of the insulin; purchased Sigma-Aldrich; host or cells: bovine pancreas
T1 sequence (P01317 25-54 limits assumed): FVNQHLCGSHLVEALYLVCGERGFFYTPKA
T1 sequence (P01317 85-105 limits assumed): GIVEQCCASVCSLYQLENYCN
Procedure: (§1) Glycated bovine insulin was observed by fluorescence spectroscopy because AGEs are marked by a typical fluorescence emission at 410 nm (excitation at 320 nm). To verify our experimental condition, we used vanillin as a negative control for D-ribose-induced protein glycation and rutin as a positive control for d-glucose-induced protein glycation.
(§2) The insulin from bovine pancreas was dissolved in third grade distilled water to a concentration of 6 mg/mL and acidified to pH 2.4 using phosphoric acid to produce monomeric insulin. Then the insulin solution was neutralized to pH 7.0 using 10 M NaOH. Non-enzymatic glycation of insulin was initiated by mixing the insulin solution, 0.5 M D-ribose (or 1.5 M D-glucose) in 50 mM NaH2PO4 buffer (pH 7.0), and 10% dimethyl sulfoxide (DMSO) or the test phlorotannins in a 1:8:1 ratio and incubating the mixture at 37 °C for 6 days (2 weeks for D-glucose induced insulin glycation). Vanillin was used as a negative control for D-ribose induced insulin glycation, whereas rutin was used as a positive control for D-glucose induced insulin glycation. After incubation, the reaction mixture was measured at an excitation wavelength of 320 nm and emission wavelength of 410 nm using a fluorescence microplate reader (Gemini XPS).

bovine insulin [2] = molecular target: T1, bovine insulin; test: D-ribose-induced non-enzymatic insulin glycation assay; type: biochemical; details: for inhibitory activity on D-ribose-induced insulin glycation: at 100 µM
Procedure: as §1, §2

[3] = rats, intravenous injection; cited from earlier work
Aβ25-35 = molecular target: T2, Aβ25-35 (Homo sapiens, UniProt P05067); test: Aβ25-35 self-aggregation assay (thioflavin-T fluorescence); type: biochemical; details: for inhibition at 10 µM: read-out: inhibition of Aβ25-35 self-aggregation
T2 construct: Gly1 and Phe1 for insulin) and C-terminals (Met35 for Aβ25-35; purchased Sigma-Aldrich
Procedure: A monomeric Aβ25-35 solution was prepared using the method of Naldi and coworkers. A 2.5 μL aliquot of various concentrations of the tested phlorotannins in 50 mM phosphate buffer (pH 7.4) with 100 mM NaCl was added to 72.5 μL of Aβ25-35 sample (100 μM), and the mixture was incubated at 4 °C for 1 day. After incubation, 25 μM thioflavin T in 50 mM glycine-NaOH buffer (pH 8.5) was added to the reaction mixture. Fluorescence emission intensity was monitored at 490 nm (λexc = 446 nm) using a fluorescence microplate reader (Gemini XPS, Molecular Devices, Sunnyvale, CA, USA).

[4] = tested on: lipid peroxidation in rat brain homogenates; test: Lipid peroxidation (TBARS) assay in whole rat brain homogenates; type: biochemical; details: Fe2+-treated rat brain homogenates, MDA level, mean ± SD, n = 3
Procedure: Whole rat brain homogenates were prepared from freshly killed Sprague Dawley rats (male, 6-months old) and provided by the Aging Tissue Bank of Pusan National University. One g of whole rat brain was homogenized in 10 mL of cold 20 mM sodium phosphate buffer containing 140 mM KCl (pH 7.4) and centrifuged at 1300× g for 15 min.
A TBA reactive species (TBARS) assay was used to evaluate the antioxidant activity of the phlorotannins in the rat brain homogenates. An aliquot of the supernatant fraction of the homogenates was mixed with phlorotannins dissolved in 10% DMSO, freshly prepared ferric sulfate (250 μM), and distilled water in a 10:5:3:12 ratio, and then the reaction mixture was incubated at 37 °C for 1 h. The reaction was completed by adding a color reagent containing 0.8% TBA, 8.1% SDS, and a 7.5% (final concentration) acetic acid-NaOH solution (pH 3.4) in a 2:1:2 ratios. The mixture was boiled in a water bath for 1 h. After cooling, the reaction mixture was mixed with an equal volume of n-butanol and centrifuged at 1300× g for 10 min. The absorbance of the upper layer was measured at 532 nm using a spectrophotometer (Molecular Devices). The formation of TBARS was expressed as MDA nmol/mg protein using 1,1,3,3-tetramethoxypropane as a standard. Trolox was used as a positive control.

[5] = parameters: method as in PMID 30744179; details: pharmacokinetic parameter prediction study; cited from earlier work
[6] = bovine insulin, D-glucose, 2 weeks incubation, mean ± SD, n = 3, read-out: IC50 D-Glucose-Induced Insulin Glycation
[7] = bovine insulin, D-ribose, mean ± SD, n = 3, read-out: IC50 D-Ribose-Induced Insulin Glycation
[8] = at 10 μM, thioflavin-T fluorescence
[9] = thioflavin-T fluorescence, Aβ25-35 100 μM, mean ± SD, n = 3, read-out: IC50 Aβ25-35 Aggregation

Row | IC50 (bovine insulin [1]; [6]) [µM] | IC50 (bovine insulin [2]; [7]) [µM] | inhibition at 10 µM (Aβ25-35; [8]) [%] | IC50 (Aβ25-35; [9]) [µM] | EC50 [4] [µM] | Structure (SMILES) | other results
1 | > 100 | 259 ± 10.8 | 34.5 | 34.4 ± 1.11 | 38.6 ± 1.16 | Oc1cc(O)cc(Oc2c(O)cc(O)c3c2Oc2c(O)cc(O)cc2O3)c1 [Eckol, eckol] | CNS penetration [5]: penetrates the CNS moderately
2 | 43.5 ± 2.38 | 29.5 ± 0.53 | 80 | 6.18 ± 0.18 | 11 ± 0.16 | Oc1cc(O)cc(Oc2c(O)cc(O)c3c2Oc2c(O)cc4oc5c(Oc6cc(O)cc(O)c6)c(O)cc(O)c5c4c2O3)c1 [Phlorofucofuroeckol-A, phlorofucofuroeckol-A] | –
3 | > 100 | > 100 | – | > 100 | > 75 | Oc1cc(O)cc(O)c1 [Phloroglucinol, phloroglucinol] | inhibition at 100 µM (bovine insulin [1]; at 100 µM): 40%; inhibitory activity on D-ribose-induced insulin glycation (bovine insulin [2]): weak or no inhibitory activity; inhibitory effect on Aβ25-35 self-aggregation (Aβ25-35; at 50 μM): no inhibitory effect
4 | – | – | – | – | 49 ± 3.5 | Cc1c(C)c2c(c(C)c1O)CCC(C)(C(=O)O)O2 (stereo not shown) [Trolox, reference compound] | –
5 | – | > 500 | – | – | – | COc1cc(C=O)ccc1O [Vanillin, vanillin, reference compound] | activity on D-ribose-induced insulin glycation (bovine insulin [2]; at 500 µM, negative control): no activity

Row | Structure (SMILES) | IC50 (bovine insulin [1]; [6]) [µM] | IC50 (bovine insulin [2]; [7]) [µM] | inhibition at 10 µM (Aβ25-35; [8]) [%] | IC50 (Aβ25-35; [9]) [µM] | EC50 [4] [µM] | other results
6 | Oc1cc(O)cc(Oc2c(O)cc(O)c3c2Oc2c(O)cc(Oc4c(O)cc(Oc5c(O)cc(O)c6c5Oc5c(O)cc(O)cc5O6)cc4O)cc2O3)c1 [Dieckol, dieckol] | > 100 | 63.7 ± 3.83 | 67 | 7.93 ± 0.16 | 13.5 ± 0.38 | BBB passage [3]: effectively passed the BBB
7 | Oc1cc(O)c2oc3cc(O)c4oc5cc(O)cc(O)c5oc4c3oc2c1 [Dioxinodehydroeckol, dioxinodehydroeckol] | – | – | – | – | 12.4 ± 1.5 | IC50 (bovine insulin [1]): > 100 µM; IC50 (bovine insulin [2]): > 100 µM; inhibitory activity on D-ribose-induced insulin glycation (bovine insulin [2]): weak or no inhibitory activity; IC50 (Aβ25-35): 8.31 ± 0.23 µM; inhibition at 10 µM (Aβ25-35): 66.1%
8 | C[C@@H]1O[C@@H](OC[C@H]2O[C@@H](Oc3c(-c4ccc(O)c(O)c4)oc4cc(O)cc(O)c4c3=O)[C@H](O)[C@@H](O)[C@@H]2O)[C@H](O)[C@H](O)[C@H]1O [Rutin, rutin, reference compound] | 5.19 ± 1.35 | – | – | – | – | –
